This is an account of results in US20260242419A1, “A CYCLIC PEPTIDE FOR TRAPPING INTERLEUKIN-1 BETA” (Merck Sharp & Dohme LLC, priority 2023, published 2026).

pIC50: −log10 of the molar value. Starred links: 1 amine or outer side, 2 acyl side, 3 side chain; linkers in the order of their positions; H or OH if unused. Non-standard residues stand in square brackets, D forms with d. Residues, ends and D or L forms follow the SMILES beside them. dPro(4R-(4-pyridylmethyl)) = O=C(O)[C@H]1C[C@@H](Cc2ccncc2)CN1; Trp(βS-Me,4-F) = C[C@@H](c1c[nH]c2cccc(F)c12)[C@H](N)C(=O)O; Bip(4'-CONH2) = NC(=O)c1ccc(-c2ccc(C[C@H](N)C(=O)O)cc2)cc1; Bip(4'-COOH) = N[C@@H](Cc1ccc(-c2ccc(C(=O)O)cc2)cc1)C(=O)O; Ala(1-bicyclo(1.1.1)pentyl) = N[C@@H](CC12CC(C1)C2)C(=O)O; dPro(3S-(4-F-Bn)) = O=C(O)[C@@H]1NCC[C@@H]1Cc1ccc(F)cc1; X4 = O=C([C@H]1[C@@H](Cc2ccncc2)CCN1[*:1])[*:2]; Ala(pyrimidin-5-yl) = N[C@@H](Cc1cncnc1)C(=O)O; Phe(4-CONH2) = NC(=O)c1ccc(C[C@H](N)C(=O)O)cc1; Phe(4-COOH) = N[C@@H](Cc1ccc(C(=O)O)cc1)C(=O)O; Pro(cis-4-F) = O=C(O)[C@@H]1C[C@H](F)CN1; Ala(4-THP) = N[C@@H](CC1CCOCC1)C(=O)O; AEF = NCCOc1ccc(C[C@H](N)C(=O)O)cc1; Dap(CONH2) = NC(=O)NC[C@H](N)C(=O)O; hTyr = N[C@@H](CCc1ccc(O)cc1)C(=O)O; d(αMeD) = C[C@@](N)(CC(=O)O)C(=O)O; h4Pal = N[C@@H](CCc1ccncc1)C(=O)O; hPhe = N[C@@H](CCc1ccccc1)C(=O)O; 4Pal = N[C@@H](Cc1ccncc1)C(=O)O; d(αMeS) = C[C@@](N)(CO)C(=O)O; NMeDab = CN[C@@H](CCN)C(=O)O; Dab = NCC[C@H](N)C(=O)O; Aib = CC(C)(N)C(=O)O

Usually pIC50 stands for −log10 of the IC50, conventionally taken in molar units.

This experiment addresses T1, IL-1β (Homo sapiens, UniProt P01584).
T1 construct: purchased BioLegend 579404
Kind of experiment: IL-6 assay in MRC5 cells: inhibition of IL-1β induced IL-6 secretion (AlphaLISA). Type of experiment: cell-based. To be noted: inhibition of IL-1β induced IL-6 secretion in MRC5 cells; read-out: MRC5 IC50. A digest of the protocol:
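Compound was pre-incubated 1 h at ambient temperature with recombinant human IL-1β at 2λ EC80 before adding human lung fibroblast MRC5 cells (3000/well) in EMEM with 0.025% BSA. After overnight culture at 37 °C, 5% CO2, secreted IL-6 in conditioned medium was measured by AlphaLISA; IC50 from 4-parameter logistic fits.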

T1 sequence (P01584 117-269): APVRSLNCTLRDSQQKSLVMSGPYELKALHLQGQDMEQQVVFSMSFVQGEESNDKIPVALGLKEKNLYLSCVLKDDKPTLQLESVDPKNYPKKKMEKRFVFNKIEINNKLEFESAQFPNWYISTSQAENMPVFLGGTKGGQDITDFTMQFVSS

Regarding `C[C@@H](c1c[nH]c2cccc(F)c12)[C@@H]1NC(=O)[C@@H]2C[C@H](F)CN2C(=O)CNC(=O)[C@H](Cc2ccc(C(=O)O)cc2)NC(=O)[C@H](Cc2ccncc2)NC(=O)[C@H](Cc2ccc(-c3ccc(C(N)=O)cc3)cc2)NC(=O)[C@H]2C[C@@H](Cc3ccncc3)CN2C(=O)CNC(=O)[C@H](CCN)NC(=O)[C@H](CCC(N)=O)NC(=O)[C@H](CC2CCOCC2)NC(=O)[C@@](C)(CO)NC(=O)[C@H](Cc2c[nH]c3ccccc23)NC(=O)[C@H](CO)NC(=O)C(C)(C)NC1=O` [Example 215] (cyclo([Bip(4'-CONH2)][4Pal][Phe(4-COOH)]G[Pro(cis-4-F)][Trp(βS-Me,4-F)][Aib]SW[d(αMeS)][Ala(4-THP)]Q[Dab]G[dPro(4R-(4-pyridylmethyl))])), the negative-log IC50 (pIC50) was 11.00.

On to `C[C@@H](c1c[nH]c2cccc(F)c12)[C@@H]1NC(=O)[C@@H]2C[C@H](F)CN2C(=O)CNC(=O)[C@H](Cc2ccc(C(=O)O)cc2)NC(=O)[C@H](CC23CC(C2)C3)NC(=O)[C@H](Cc2ccc(-c3ccc(C(N)=O)cc3)cc2)NC(=O)[C@H]2[C@@H](Cc3ccc(F)cc3)CCN2C(=O)CNC(=O)[C@H](CCN)NC(=O)[C@H](CCC(N)=O)NC(=O)[C@H](CC2CCOCC2)NC(=O)[C@@](C)(CO)NC(=O)[C@H](Cc2c[nH]c3ccccc23)NC(=O)[C@H](CO)NC(=O)C(C)(C)NC1=O` [Example 216] (cyclo([Bip(4'-CONH2)][Ala(1-bicyclo(1.1.1)pentyl)][Phe(4-COOH)]G[Pro(cis-4-F)][Trp(βS-Me,4-F)][Aib]SW[d(αMeS)][Ala(4-THP)]Q[Dab]G[dPro(3S-(4-F-Bn))])), for which the negative-log IC50 (pIC50) is 11.10. Then `CC(=O)NCCOc1ccc(C[C@@H]2NC(=O)[C@H]3C[C@@H](Cc4ccncc4)CN3C(=O)CNC(=O)[C@H](CCN)N(C)C(=O)[C@H](CCC(N)=O)NC(=O)[C@H](Cc3cncnc3)NC(=O)C(C)(C)NC(=O)[C@H](Cc3c[nH]c4ccccc34)NC(=O)[C@H](CO)NC(=O)C(C)(C)NC(=O)[C@H]([C@@H](C)c3c[nH]c4cccc(F)c34)NC(=O)[C@@H]3C[C@H](F)CN3C(=O)CNC(=O)[C@H](Cc3ccc(C(N)=O)cc3)NC(=O)[C@H](Cc3ccncc3)NC2=O)cc1` [Example 218] (cyclo([4Pal][Phe(4-CONH2)]G[Pro(cis-4-F)][Trp(βS-Me,4-F)][Aib]SW[Aib][Ala(pyrimidin-5-yl)]Q[NMeDab]G[dPro(4R-(4-pyridylmethyl))][AEF](Ac))), with 10.44. The result for `C[C@@H](c1c[nH]c2cccc(F)c12)[C@@H]1NC(=O)[C@@H]2C[C@H](F)CN2C(=O)CNC(=O)[C@H](Cc2ccc(C(=O)O)cc2)NC(=O)[C@H](Cc2ccncc2)NC(=O)[C@H](Cc2ccc(-c3ccc(C(=O)O)cc3)cc2)NC(=O)[C@H]2[C@@H](Cc3ccncc3)CCN2C(=O)CNC(=O)[C@H](CCN)NC(=O)[C@H](CCC(N)=O)NC(=O)[C@H](CCc2ccc(O)cc2)NC(=O)[C@@](C)(CC(=O)O)NC(=O)[C@H](Cc2c[nH]c3ccccc23)NC(=O)[C@H](CO)NC(=O)C(C)(C)NC1=O` [Example 219] (cyclo([Bip(4'-COOH)][4Pal][Phe(4-COOH)]G[Pro(cis-4-F)][Trp(βS-Me,4-F)][Aib]SW[d(αMeD)][hTyr]Q[Dab]G[X4])) reads 10.74; that for `C[C@@H](c1c[nH]c2cccc(F)c12)[C@@H]1NC(=O)[C@@H]2C[C@H](F)CN2C(=O)CNC(=O)[C@H](Cc2ccc(C(=O)O)cc2)NC(=O)[C@H](Cc2ccncc2)NC(=O)[C@H](Cc2ccc(-c3ccc(C(=O)O)cc3)cc2)NC(=O)[C@H]2[C@@H](Cc3ccncc3)CCN2C(=O)CNC(=O)[C@H](CCN)NC(=O)[C@H](CCC(N)=O)NC(=O)[C@H](CCc2ccc(O)cc2)NC(=O)C(C)(C)NC(=O)[C@H](Cc2c[nH]c3ccccc23)NC(=O)[C@H](CO)NC(=O)C(C)(C)NC1=O` [Example 220] (cyclo([Bip(4'-COOH)][4Pal][Phe(4-COOH)]G[Pro(cis-4-F)][Trp(βS-Me,4-F)][Aib]SW[Aib][hTyr]Q[Dab]G[X4])), 10.41; that for `C[C@@H](c1c[nH]c2cccc(F)c12)[C@@H]1NC(=O)[C@@H]2C[C@H](F)CN2C(=O)CNC(=O)[C@H](Cc2ccc(C(=O)O)cc2)NC(=O)[C@H](Cc2ccncc2)NC(=O)[C@H](Cc2ccc(-c3ccc(C(=O)O)cc3)cc2)NC(=O)[C@H]2[C@@H](Cc3ccncc3)CCN2C(=O)CNC(=O)[C@H](CCN)NC(=O)[C@H](CCC(N)=O)NC(=O)[C@H](CCc2ccccc2)NC(=O)[C@@](C)(CC(=O)O)NC(=O)[C@H](Cc2c[nH]c3ccccc23)NC(=O)[C@H](CO)NC(=O)C(C)(C)NC1=O` [Example 221] (cyclo([Bip(4'-COOH)][4Pal][Phe(4-COOH)]G[Pro(cis-4-F)][Trp(βS-Me,4-F)][Aib]SW[d(αMeD)][hPhe]Q[Dab]G[X4])), 10.70. The result for `C[C@@H](c1c[nH]c2cccc(F)c12)[C@@H]1NC(=O)[C@@H]2C[C@H](F)CN2C(=O)CNC(=O)[C@H](Cc2ccc(C(=O)O)cc2)NC(=O)[C@H](Cc2ccncc2)NC(=O)[C@H](Cc2ccc(-c3ccc(C(=O)O)cc3)cc2)NC(=O)[C@H]2[C@@H](Cc3ccncc3)CCN2C(=O)CNC(=O)[C@H](CCN)NC(=O)[C@H](CCC(N)=O)NC(=O)[C@H](CCc2ccncc2)NC(=O)[C@@](C)(CC(=O)O)NC(=O)[C@H](Cc2c[nH]c3ccccc23)NC(=O)[C@H](CO)NC(=O)C(C)(C)NC1=O` [Example 222] (cyclo([Bip(4'-COOH)][4Pal][Phe(4-COOH)]G[Pro(cis-4-F)][Trp(βS-Me,4-F)][Aib]SW[d(αMeD)][h4Pal]Q[Dab]G[X4])) reads 10.70; that for `C[C@@H](c1c[nH]c2cccc(F)c12)[C@@H]1NC(=O)[C@@H]2C[C@H](F)CN2C(=O)CNC(=O)[C@H](Cc2ccc(C(=O)O)cc2)NC(=O)[C@H](Cc2ccncc2)NC(=O)[C@H](Cc2ccc(-c3ccc(C(=O)O)cc3)cc2)NC(=O)[C@H]2[C@@H](Cc3ccncc3)CCN2C(=O)CNC(=O)[C@H](CNC(N)=O)NC(=O)[C@H](CCC(N)=O)NC(=O)[C@H](CCc2ccncc2)NC(=O)[C@@](C)(CC(=O)O)NC(=O)[C@H](Cc2c[nH]c3ccccc23)NC(=O)[C@H](CO)NC(=O)C(C)(C)NC1=O` [Example 223] (cyclo([Bip(4'-COOH)][4Pal][Phe(4-COOH)]G[Pro(cis-4-F)][Trp(βS-Me,4-F)][Aib]SW[d(αMeD)][h4Pal]Q[Dap(CONH2)]G[X4])), 10.57.

On to `COC[C@@]1(C)NC(=O)[C@H](Cc2c[nH]c3ccccc23)NC(=O)[C@H](CO)NC(=O)C(C)(C)NC(=O)[C@H]([C@@H](C)c2c[nH]c3cccc(F)c23)NC(=O)[C@@H]2C[C@H](F)CN2C(=O)CNC(=O)[C@H](Cc2ccc(C(=O)O)cc2)NC(=O)[C@H](Cc2ccncc2)NC(=O)[C@H](Cc2ccc(-c3ccc(C(=O)O)cc3)cc2)NC(=O)[C@H]2[C@@H](Cc3ccncc3)CCN2C(=O)CNC(=O)[C@H](CCN)NC(=O)[C@H](CCC(N)=O)NC(=O)[C@H](Cc2cncnc2)NC1=O` [Example 224] (cyclo([Bip(4'-COOH)][4Pal][Phe(4-COOH)]G[Pro(cis-4-F)][Trp(βS-Me,4-F)][Aib]SW[d(αMeS)](Me)[Ala(pyrimidin-5-yl)]Q[Dab]G[X4])), for which the negative-log IC50 (pIC50) is 10.52.
